Patent publication US6689801B2, “Certain heteroaryl substituted thiol inhibitors of endothelin-converting enzyme” (Novartis AG, priority 1998, dated 2004)

Structure (SMILES) | melting point
CC(C)C[C@H](S)C(=O)NC1(C(=O)N[C@@H](Cc2cnc(-c3ccc(F)c(Cl)c3)s2)C(=O)O)CCCC1 (stereo in doubt) [Example 1(f), 3-[2-(3-Chloro-4-fluoro-phenyl)-thiazol-5-yl]-2-{[1-(2-mercapto-4-methyl-pentanoylamino)-cyclopentanecarbonyl]-amino}-propionic acid] | 96 to 98 °C
Cc1noc(C)c1-c1nc(CC(NC(=O)C2(NC(=O)[C@@H](S)C(C)C)CCCC2)C(=O)O)no1 (stereo in doubt) [Example 1(g), 3-[5-(3,5-Dimethyl-isoxazol-4-yl)-[1,2,4]oxadiazol-3-yl]-2-{[1-(2-mercapto-3-methyl-butanoylamino)-cyclopentanecarbonyl]-amino}-propionic acid] | 170 to 172 °C
CC(C)C[C@H](NC(=O)[C@@H](S)CC(C)C)C(=O)N[C@@H](Cc1ccc(-c2cccs2)nc1)C(=O)O (stereo in doubt) [Example 2(aa), 2-[2-(2-Mercapto-4-methyl-pentanoylamino)-4-methyl-pentanoylamino]-3-[6-(thien-2-yl)-pyridin-3-yl]-propionic acid] | 156 to 158 °C
CC(C)[C@H](S)C(=O)NC1(C(=O)NC(Cc2cc(-c3ccccc3)cs2)C(=O)O)CCCC1 (stereo partly drawn) [Example 1(c), 2-{[1-(2-Mercapto-3-methyl-butanoyllamino)-cyclopentanecarbonyl]-amino}-3-(4-phenyl-thien-2-yl)-propionic acid] | 158 to 164 °C
CSCCC(S)C(=O)NC1(C(=O)NC(Cc2ccc(-c3ccoc3)nc2)C(=O)O)CCCC1.Cl (stereo not drawn) | 150 to 153 °C
CC[C@H](C)[C@H](S)C(=O)NC1(C(=O)NC(Cc2ccc(-c3ccccc3)s2)C(=O)O)CCCC1 (stereo in doubt) [Example 1(b), 2-{[1-(2-Mercapto-3-methyl-pentanoylamino)-cyclopentanecarbonyl]-amino}-3-(5-phenyl-thien-2-yl)-propionic acid] | 131 to 133 °C
CCCC(S)C(=O)NC1(C(=O)NC(Cc2ccc(-c3cccs3)nc2)C(=O)O)CCCC1.Cl (stereo not drawn) | 165 to 167 °C
O=C(O)C(Cc1cc(-c2ccccc2)cs1)NC(=O)C1(NC(=O)[C@@H](S)Cc2ccccc2)CCCC1 (stereo in doubt) [Example 1(d), 2-{[1-(2-Mercapto-3-phenyl-propionylamino)-cyclopentanecarbonyl]-amino}-3-(4-phenyl-thien-2-yl)-propionic acid] | 133 to 136 °C
CC[C@H](C)C(S)C(=O)NC1(C(=O)NC(Cc2ccc(-c3ccsc3)nc2)C(=O)O)CCCC1 (stereo in doubt) [Example 2(b), 2-{[1-(2-Mercapto-3-methyl-pentanoylamino)-cyclopentanecarbonyl]-amino}-3-[6-(thien-3yl)-pyridin-3-yl]-propionic acid] | 200 to 202 °C
Cc1noc(C)c1-c1nc(CC(NC(=O)C2(NC(=O)[C@@H](S)CC(C)C)CCCC2)C(=O)O)no1 (stereo in doubt) [Example 1(h), 3-[5-(3,5-Dimethyl-isoxazol-4-yl)-[1,2,4]oxadiazol-3-yl]-2-{[1-(2-mercapto-4-methyl-pentanoylamino)-cyclopentanecarbonyl]-amino}-propionic acid] | 151 to 153 °C
Cc1nc(-c2ccccc2)oc1CC(NC(=O)C1(NC(=O)[C@@H](S)C(C)C)CCCC1)C(=O)O (stereo in doubt) [Example 1(e), 2-{[1-(2-Mercapto-3-methyl-butanoylamino)-cyclopentanecarbonyl]-amino}-3-(4-methyl-2-phenyl-oxazol-5-yl)-propionic acid] | 227 to 229 °C

Continued, values first:

melting point | Structure (SMILES)
218 to 220 °C | CC(C)C[C@H](S)C(=O)NC(C)(C)C(=O)N[C@@H](Cc1ccc(-c2ccsc2)nc1)C(=O)O (stereo in doubt) [Example 2(k), 2-[2-(2-Mercapto-4-methyl-pentanoylamino)-2-methyl-propionylamino]-3-[6-(thien-3-yl)-pyridin-3-yl]-propionic acid]
175 to 177 °C | CSCC[C@H](S)C(=O)NC1(C(=O)NC(Cc2ccc(-c3cccs3)nc2)C(=O)O)CCCC1 (stereo in doubt) [Example 2(r), 2-{[1-(2-Mercapto-4-methylthio-butanoylamino)-cyclopentanecarbonyl]-amino}-3-[6-(thien-2-yl)-pyridin-3-yl]-propionic acid]
200 to 202 °C | CC(C)C[C@H](S)C(=O)NC1(C(=O)NC(Cc2ccc(-c3ccco3)nc2)C(=O)O)CCCC1 (stereo in doubt) [Example 2(qq), 3-[6-(Furan-2-yl)-pyridin-3-yl]-2-{[1-(2-mercapto-4-methyl-pentanoylamino)-cyclopentanecarbonyl]-amino}-propionic acid]
219 to 220 °C | O=C(NC1(C(=O)N[C@@H](Cc2ccc(-c3cccs3)nc2)C(=O)O)CCCC1)C(S)Cc1ccc(O)cc1 (stereo in doubt) [Example 2(v), 2-({1-[3-(4-Hydroxy-phenyl)-2-mercapto-propanoylamino]-cyclopentanecarbonyl}-amino)-3-[6-(thien-2-yl)-pyridin-3-yl]-propionic acid]
194 to 196 °C | CC(C)C[C@H](S)C(=O)NC(C)(C)C(=O)N[C@@H](Cc1ccc(-c2cccs2)nc1)C(=O)O (stereo in doubt) [Example 2(z), 2-[2-(2-Mercapto-4-methyl-pentanoylamino)-2-methyl-propionylamino]-3-[6-(thien-2-yl)-pyridin-3-yl]-propionic acid]
165 to 168 °C | CC(C)C[C@H](S)C(=O)NC1(C(=O)NC(Cc2ccc(-c3cccnc3)nc2)C(=O)O)CCCC1 (stereo in doubt) [Example 2(o), 2-{[1-(2-Mercapto-4-methyl-pentanoylamino)-cyclopentanecarbonyl]-amino}-3-[6-(pyridin-3-yl)-pyridin-3-yl]-propanoic acid]
210 to 212 °C | CC(C)C[C@H](S)C(=O)N[C@@H](Cc1ccc(-c2cccs2)nc1)C(=O)N[C@@H](Cc1ccc(-c2cccs2)nc1)C(=O)O (stereo in doubt) [Example 2(w), 2-{2-(2-Mercapto-4-methyl-pentanoylamino)-3-[6-(thiophen-2-yl)-pyridin-3-yl]-propanoylamino}-3-[6-(thien-2-yl)-pyridin-3-yl]-propionic acid]
190 to 193 °C | CC(C)C[C@H](S)C(=O)NC1(C(=O)NC(Cc2ccc(-c3ccoc3)nc2)C(=O)O)CCCC1 (stereo in doubt) [Example 2(dd), 3-[6-(Furan-3-yl)-pyridin-3-yl]-2-{[1-(2-mercapto-4-methyl-pentanoylamino)-cyclopentanecarbonyl]-amino}-propanoic acid]
208 to 209 °C | O=C(O)[C@H](Cc1ccc(-c2ccsc2)nc1)NC(=O)C1(NC(=O)[C@@H](S)Cc2ccccc2)CCCC1 (stereo in doubt) [Example 2(l), 2-{[1-(2-Mercapto-3-phenyl-propionylamino)-cyclopentanecarbonyl]-amino}-3-[6-(thien-3-yl)-pyridin-3-yl]-propionic acid]
209 to 210 °C | CC(C)C[C@H](S)C(=O)N[C@@H](Cc1ccccc1)C(=O)N[C@@H](Cc1ccc(-c2cccs2)nc1)C(=O)O [Example 2(u), 2-[1-(2-Mercapto-4-methyl-pentanoylamino)-3-phenyl-propionylamino]-3-[6-(thien-2-yl)-pyridin-3-yl]-propionic acid]
185 to 187 °C | CC(C)C[C@H](S)C(=O)NC1(C(=O)NC(Cc2ccc(-c3nccs3)nc2)C(=O)O)CCCC1 (stereo in doubt) [Example 2(uu), 2-{[1-(2-Mercapto-4-methyl-pentanoylamino)-cyclopentanecarbonyl]-amino}-3-[6-(thiazol-2-yl)-pyridin-3-yl]-propionic acid]
194 to 195 °C | CC(C)C[C@H](S)C(=O)N[C@@H](Cc1ccc(Br)nc1)C(=O)N[C@@H](Cc1ccc(-c2cccs2)nc1)C(=O)O (stereo in doubt) [Example 2(bb), 2-[3-(6-Bromo-pyridin-3-yl)-2-(2-mercapto-4-methyl-pentanoylamino)-propionylamino]-3-[6-(thien-2-yl)-pyridin-3-yl]-propionic acid]
195 to 197 °C | CSCC[C@H](S)C(=O)NC1(C(=O)NC(Cc2ccc(-c3ccco3)nc2)C(=O)O)CCCC1 (stereo in doubt) [Example 2(tt), 3-[6-(Furan-2-yl)-pyridin-3-yl]-2-{[1-(2-mercapto-4-methylthiobutanoylamino)-cyclopentanecarbonyl]-amino}-propionic acid]
